Source: patent US7858349B2, “Anti-cancer compounds” (The Regents of the University of Colorado, priority 1999, dated 2010)
Where two headings read alike, the source gives them in different places.

Columns and labels:
NSCLC strain A-549 = assay: MTT assay for cell survival, NSCLC A-549 in vitro; format: cell-based, human; settings: ED50 for killing of NSCLC strain A-549 in vitro, 4 days
PC3 PC cells = assay: Inhibition of PC3 tumor growth in vivo in nude mice; parameters: species or system athymic nude mice; key to PC3 In vivo % inhib.: an IC50 value of “0” represents no detectable anti-cancer activity for a drug in a given cell line; “Stim.” indicates the observation of a stimulatory activity on the growth of the cancer cell line; settings: percent inhibition of tumor growth in nude mice; prostate cancer; i.p. 5 mg/kg/every second day or 10 mg/kg/every fourth day
Procedure: Compounds having high in vitro cytotoxic activity were tested against implanted tumors in vivo. Athymic nude mice were implanted subcutaneously with suspensions (2 million SHP-77 SCLC cells, 1 million A549 NSCLC cells or 1.5 million PC3 PC cells) in Matrigel suspension. On the eighth day after tumor implantation groups of 5 mice bearing implants were injected intraperitoneally with the compounds being tested at 5 mg/kg/every second day or at 10 mg/kg/every fourth day; control animals were injected with an equal volume of isotonic saline. Less soluble compounds were initially dissolved in dimethyl sulfoxide (DMSO) and diluted with medium. In those cases the control injections contained the same concentration of DMSO. Tumor size was measured with a caliper three times per week. Tumor volume was calculated by the formula: Volume(cc)=3.14×(length)×(width)^2/6 At autopsy tumors were removed and weighed. Tumor inhibition was calculated on both weight and measurement basis. In each Table, an IC50 value of “0” represents no detectable anti-cancer activity for a drug in a given cell line and “Stim.” indicates the observation of a stimulatory activity on the growth of the cancer cell line.

SCLC strain SHP-77 = assay: MTT assay for cell survival, SCLC SHP-77 in vitro; format: cell-based, human; settings: ED50 for killing of SCLC strain SHP-77 in vitro, 4 days, 0 = no detectable activity

Row | SMILES | IC50 (NSCLC strain A-549) | PC3 In vivo % inhib. (PC3 PC cells) | IC50 (SCLC strain SHP-77; read-out: SHP-77 In vitro IC50) | IC50 (SCLC strain SHP-77; read-out: SCLC SHP-77 IC50)
1 | N#Cc1ccc(N2CCN(C(=O)C(Cc3ccc(I)cc3)NC(=O)C=Cc3c(F)c(F)c(F)c(F)c3F)CC2)cc1 (stereo not drawn) [Analog M-1320, F5c-PIF-4-Cypp] | 17 µM | – | – | –
2 | O=C(C=Cc1c(F)c(F)c(F)c(F)c1F)NC(Cc1ccc(I)cc1)C(=O)N1CCN(C(c2ccccc2)c2ccc(Cl)cc2)CC1 (stereo not drawn) [Analog M-1300, F5c-PIF-Cbp] | 21 µM | – | – | –
3 | O=C(C=Cc1c(F)c(F)c(F)c(F)c1F)NC(Cc1ccc(I)cc1)C(=O)N1CCN(CCCc2ccccc2)CC1 (stereo not drawn) [Analog M-1308, F5c-PIF-Ppp] | 14 µM | – | – | –
4 | O=C(C=Cc1c(F)c(F)c(F)c(F)c1F)NC(Cc1ccc(I)cc1)C(=O)N1CCN(CC2CCCCC2)CC1 (stereo not drawn) [Analog M-1314, F5c-PIF-Chmp] | 21 µM | – | – | –
5 | C=CCN1CCN(C(=O)C(Cc2ccc(I)cc2)NC(=O)C=Cc2c(F)c(F)c(F)c(F)c2F)CC1 (stereo not drawn) [Analog M-1316, F5c-PIF-Alp] | 20 µM | – | – | –
6 | O=C(C=Cc1c(F)c(F)c(F)c(F)c1F)NC(Cc1ccc(I)cc1)C(=O)N1CCN(c2ccc(Cl)cc2)CC1 (stereo not drawn) [Analog M-1298, F5c-PIF-Cpp] | 21 µM | – | – | –
7 | CC1(C)CC(NC(=O)C(Cc2ccc(-c3ccccc3)cc2)NC(=O)C(c2ccc(Cl)cc2)c2ccc(Cl)cc2)CC(C)(C)N1 (stereo not drawn) [Analog M-1244, Bcpa-Bip-Atmp] | – | 59% | 1.3 µM | –
8 | CC1(C)CC(NC(=O)C(Cc2ccc(OCc3c(Cl)cccc3Cl)cc2)NS(=O)(=O)c2ccc(OC(F)(F)F)cc2)CC(C)(C)N1 (stereo not drawn) [Analog M-1536, 4Tmbs-OC2Y-Atmp] | – | Stim. | – | 3.2 µM
9 | CC1(C)CC(NC(=O)C(Cc2ccc(OCc3c(Cl)cccc3Cl)cc2)NC(=O)c2c(F)c(N)cc(F)c2F)CC(C)(C)N1 (stereo not drawn) [Analog M-1452, Atfb-OC2Y-Atmp] | – | Stim. | – | 7.2 µM
10 | Cc1ccc(CSC(C)(C)C(NC(=O)C23CC4CC(CC(C4)C2)C3)C(=O)NC2CC(C)(C)NC(C)(C)C2)cc1 (stereo not drawn) [Analog M-1492, Aca-Pen(Mbzl)-Atmp] | – | 15% | – | 3.4 µM
11 | CC1(C)CC(NC(=O)C(Cc2ccc(OCc3c(Cl)cccc3Cl)cc2)NC(=O)c2ccc(S(N)(=O)=O)cc2)CC(C)(C)N1 (stereo not drawn) [Analog M-1458, Sab-OC2Y-Atmp] | – | Stim. | – | > 60 µM
12 | Cc1ccc(CSC(C)(C)C(NC(=O)C(C)(c2ccccc2)c2ccccc2)C(=O)NC2CC(C)(C)NC(C)(C)C2)cc1 (stereo not drawn) [Analog M-1510, 22Dp-Pen(Mbzl)-Atmp] | – | Stim. | – | 4.2 µM
13 | CC1(C)CC(NC(=O)C(Cc2c[nH]c3ccccc23)NC(=O)C=Cc2c(F)c(F)c(F)c(F)c2F)CC(C)(C)N1 (stereo not drawn) [Analog M-1114, F5c-Trp-Atmp] | – | 28% | > 60 µM | –
14 | O=C(/C=C/c1c(F)c(F)c(F)c(F)c1F)N[C@@H](Cc1ccc(OCc2c(Cl)cccc2Cl)cc1)C(=O)NCCN1CCOCC1 [Analog M-1632, F5c-OC2Y-Aem] | – | 32% | – | 7.8 µM
15 | Cc1ncc(CO)c(CNC(=O)[C@H](Cc2ccc(OCc3c(Cl)cccc3Cl)cc2)NC(=O)/C=C/c2c(F)c(F)c(F)c(F)c2F)c1O [Analog M-1622, F5c-OC2Y-Pxa] | – | 58% | – | 22 µM
16 | CC1(C)CC(NC(=O)C(Cc2ccc(OCc3c(Cl)cccc3Cl)cc2)NC(=O)c2ccc(C(F)(F)F)cc2)CC(C)(C)N1 (stereo not drawn) [Analog M-1484, Ptmb-OC2Y-Atmp] | – | Stim. | – | 1.8 µM
17 | O=C(C=Cc1c(F)c(F)c(F)c(F)c1F)NC(Cc1ccc(OCc2c(Cl)cccc2Cl)cc1)C(=O)NC1CN2CCC1CC2 [Analog M-1546, F5c-OC2Y-(S)-Aqu] | – | 29% | – | 1.8 µM
18 | CC1(C)CC(NC(=O)C(Cc2ccc(OCc3c(Cl)cccc3Cl)cc2)NC(=O)C#Cc2ccccc2)CC(C)(C)N1 (stereo not drawn) [Analog M-1398, Ppr-OC2Y-Atmp] | – | 65% | – | 8 µM

Row | SMILES | IC50 (NSCLC strain A-549) | PC3 In vivo % inhib. (PC3 PC cells) | IC50 (SCLC strain SHP-77; read-out: SHP-77 In vitro IC50) | IC50 (SCLC strain SHP-77; read-out: SCLC SHP-77 IC50)
19 | O=C(C=Cc1c(F)c(F)c(F)c(F)c1F)NC(Cc1ccc(OCc2c(Cl)cccc2Cl)cc1)C(=O)N1CCN(c2ncccn2)CC1 (stereo not drawn) [Analog M-1554, F5c-OC2Y-Pmpz] | – | Stim. | – | 6.8 µM
20 | COc1ccc2c(c1)c(CC(=O)NC(Cc1ccc(OCc3c(Cl)cccc3Cl)cc1)C(=O)NC1CN3CCC1CC3)c(C)n2C(=O)c1ccc(Cl)cc1 [Analog M-1590, Indo-OC2Y-(S)-Aqu] | – | Stim. | – | 4.1 µM
21 | COc1ccc2c(c1)c(CC(=O)N[C@@H](Cc1ccc(OCc3c(Cl)cccc3Cl)cc1)C(=O)NCCCN1CCN(C)CC1)c(C)n2C(=O)c1ccc(Cl)cc1 [Analog M-1584, Indo-OC2Y-Amp] | – | 32% | – | 1.5 µM
22 | CC1(C)CC(NC(=O)C(Cc2ccc(OCc3c(Cl)cccc3Cl)cc2)NC(=O)c2ccc(OC(F)(F)F)cc2)CC(C)(C)N1 (stereo not drawn) [Analog M-1538, 4Tfmb-OC2Y-Atmp] | – | Stim. | – | 1.8 µM
23 | O=C(C=Cc1c(F)c(F)c(F)c(F)c1F)NC(Cc1ccc(-c2ccccc2)cc1)C(=O)N1CC2CC1CN2Cc1ccccc1 (stereo not drawn) [Analog M-1268, F5c-Bip-Bdbh] | – | 36% | 3 µM | –
24 | Cc1ccc(CSC(C)(C)C(NC(=O)COc2c(F)c(F)c(F)c(F)c2F)C(=O)NC2CC(C)(C)NC(C)(C)C2)cc1 (stereo not drawn) [Analog M-1486, F5po-Pen(Mbzl)-Atmp] | – | 21% | – | 4.2 µM
25 | CC1(C)CC(NC(=O)C(Cc2ccc(OCc3c(Cl)cccc3Cl)cc2)NC(=O)/C=C/c2cc(C(F)(F)F)cc(C(F)(F)F)c2)CC(C)(C)N1 (stereo not drawn) [Analog M-1444, Tf2c-OC2Y-Atmp] | – | 11% | – | 1.4 µM
26 | Cc1ncc(CO)c(CN[C@@H](Cc2ccc(OCc3c(Cl)cccc3Cl)cc2)C(=O)NC2CC(C)(C)NC(C)(C)C2)c1O [Analog M-1610, B6-OC2Y-Atmp] | – | Stim. | – | > 60 µM
27 | CC1(C)CC(NC(=O)C(Cc2ccc(F)cc2)NC(=O)C=Cc2ccco2)CC(C)(C)N1 (stereo not drawn) [Analog M-1154, 2-Fa-PFF-Atmp] | – | Stim | > 60 µM | –
28 | CC1(C)CC(NC(=O)C(Cc2ccc(C#N)cc2)NC(=O)C=Cc2c(F)c(F)c(F)c(F)c2F)CC(C)(C)N1 (stereo not drawn) [Analog M-1110, F5c-PCNF-Atmp] | – | 54% | 0.9 µM | –
29 | CC1(C)CC(NC(=O)C(Cc2ccc(OCc3c(Cl)cccc3Cl)cc2)NC(=S)Nc2c(F)c(F)c(F)c(F)c2F)CC(C)(C)N1 (stereo not drawn) [Analog M-1094, F5PT-OC2Y-Atmp] | – | 52% | 3.2 µM | –
30 | O=C(C=Cc1c(F)c(F)c(F)c(F)c1F)NC(Cc1ccc(-c2ccccc2)cc1)C(=O)N1CCN(c2ncccn2)CC1 (stereo not drawn) [Analog M-1260, F5c-Bip-Pmpz] | – | 60% | 10 µM | –
31 | CC1(C)CC(NC(=O)C(Cc2ccc(OCc3c(Cl)cccc3Cl)cc2)NC(=O)C=CC(=O)c2ccccc2)CC(C)(C)N1 (stereo not drawn) [Analog M-1576, Bzac-OC2Y-Atmp] | – | 57% | – | 6.2 µM
32 | CC1CN(C(=O)C(Cc2ccc(OCc3c(Cl)cccc3Cl)cc2)NC(=O)C=Cc2c(F)c(F)c(F)c(F)c2F)CC(C)N1Cc1ccccc1 (stereo not drawn) [Analog M-1556, F5c-OC2Y-cDmbp] | – | 59% | – | 18 µM
33 | CC(C=CC1(O)C(C)=CC(=O)CC1(C)C)=CC(=O)NC(Cc1ccc(OCc2c(Cl)cccc2Cl)cc1)C(=O)NC1CC(C)(C)NC(C)(C)C1 (stereo not drawn) [Analog M-1464, Aba-OC2Y-Atmp] | – | 14% | – | 14 µM
34 | Cc1ncc(COP(=O)(O)O)c(CN[C@@H](Cc2ccc(OCc3c(Cl)cccc3Cl)cc2)C(=O)NC2CC(C)(C)NC(C)(C)C2)c1O [Analog M-1612, B6P-OC2Y-Atmp] | – | Stim. | – | > 60 µM
35 | COc1ccc2cc(C(C)C(=O)NC(Cc3ccc(C#N)cc3)C(=O)NC3CC(C)(C)NC(C)(C)C3)ccc2c1 (stereo not drawn) [Analog M-1508, Napr-PCNF-Atmp] | – | 45% | – | 23 µM
36 | COc1ccc2c(c1)c(CC(=O)NC(C(=O)NC1CC(C)(C)NC(C)(C)C1)C(C)(C)SCc1ccc(C)cc1)c(C)n2C(=O)c1ccc(Cl)cc1 (stereo not drawn) [Analog M-1518, Indo-Pen(Mbzl)-Atmp] | – | Stim. | – | 6 µM
